In patent US8232401B2 (Japan Tobacco Inc., priority 2002, dated 2012):
pIC50: −log10 of the molar value.

What follows are compounds tested against T1, HIV integrase (Human immunodeficiency virus type 1 group M subtype B, UniProt P12497, F1332H) (assay: Determination of enzyme (HIV integrase) inhibitory activity (strand transfer, microtiter plate, absorbance at 450 nm)). Conditions: recombinant HIV integrase (F185H) expressed in E. coli; donor DNA on streptavidin plate, digoxigenin target DNA; 37° C.
T1 construct: HIV integrase full length gene; made in house; host or cells: Escherichia coli BL21(DE3)
Format: biochemical, HIV (Human Immunodeficiency Virus (type 1))
Protocol: The following explains evaluation methods of the HIV integrase inhibitory activity of the compound of the present invention.
(i) Construction of Recombinant Integrase Gene Expression System
(ii) Production and Purification of Integrase Protein
Escherichia coli recombinant BL21(DE3) transformed with plasmid pET21a-IN-F185H obtained in (i) was shake cultured at 30° C. in a liquid medium containing ampicillin. When the culture reached the logarithmic growth phase, isopropyl-β-D-thiogalactopyranoside was added to promote expression of integrase gene. The culture was continued for 3 hrs to promote accumulation of the integrase protein. The recombinant E. coli was collected in pellets by centrifugal separation and preserved at −80° C.
The E. coli was suspended in Lysis buffer (20 mM HEPES (pH 7.5), 5 mM DTT, 10 mM CHAPS, 10% glycerol) containing 1M sodium chloride and subjected to repeat pressurization and depressurization for rupture, and centrifugal separation at 4° C., 40,000×g, 60 min to recover a water-soluble fraction (supernatant). This was diluted 10-fold with Lysis buffer free of sodium chloride, mixed with SP-Sepharose (Pharmacia Corporation) and stirred at 4° C. for 60 min to allow adsorption of integrase protein to the resin. The resin was washed with Lysis buffer containing 100 mM sodium chloride and the integrase protein was eluted with Lysis buffer containing 1M sodium chloride.
The eluted integrase protein solution was applied to a Superdex 75 (Pharmacia Corporation) column for gel filtration. The protein was eluted with Lysis buffer containing 1M sodium chloride.
The obtained fractions of the integrate protein were collected and preserved at −80° C.
(iii) Preparation of DNA Solution
The following DNA synthesized by Greiner was dissolved in TE buffer (10 mM Tris-hydrochloric acid (pH 8.0), 1 mM EDTA) and mixed with donor DNA, target DNA, each complementary strand (+ and − strands) to 1 μM. The mixture was heated at 95° C. for 5 min, 80° C. for 10 min, 70° C. for 10 min, 60° C. for 10 min, 50° C. for 10 min and 40° C. for 10 min and preserved at 25° C. to give a double stranded DNA, which was used for the test. Donor DNA (− strand having biotin attached to the 5′ terminal)
(iv) Determination of Enzyme (HIV Integrase) Inhibitory activity
The donor DNA was diluted with TE buffer to 10 nM, of which 50 μl was added to each well of streptavidin-coated microtiter plate (Roche) and allowed to adsorb at 37° C. for 60 min. The DNA was washed with phosphate buffer (Dulbecco PBS, Sanko Junyaku Co., Ltd.) containing 0.1% Tween 20 and phosphate buffer. Then, a reaction mixture (70 μl) having the following composition, a test substance (10 μl) diluted with the reaction mixture and […] integrase protein (10 μl) were added to each well and reacted at 37° C. for 60 min.
Then, 50 nM target DNA (1.0 μl) was added, reacted at 37° C. for 10 min and washed with phosphate buffer containing 0.1% Tween 20 to stop the reaction.
Then, 100 mU/ml peroxidase labeled anti-digoxigenin antibody solution (Roche, 100 μl) was added, and the mixture was reacted at 37° C. for 60 min, followed by washing with phosphate buffer containing 0.1% Tween 20.
A peroxidase color solution (Bio Rad, 100 μl) was added and allowed to react at room temperature for 4 min. The color reaction was stopped by adding 1N sulfuric acid (100 μl). The absorbance at 450 nm was measured.
The HIV integrase inhibitory activity (IC50) of the compound of the present invention was calculated from the inhibition rate according to the following formula. […] Evaluation of Antiviral Activity

Point of comparison: `CN(C)S(=O)(=O)Cn1cc(C(=O)O)c(=O)c2cc(Cc3c(F)cccc3Cl)ccc21` [Example 1-77, 6-(2-Chloro-6-fluorobenzyl)-1-dimethylsulfamoylmethyl-4-oxo-1,4-dihydroquinoline-3-carboxylic acid], pIC50 7.20. Against it:
- CNS(=O)(=O)Cn1cc(C(=O)O)c(=O)c2cc(Cc3c(F)cccc3Cl)ccc21 [Example 1-76, 6-(2-Chloro-6-fluorobenzyl)-1-methylsulfamoylmethyl-4-oxo-1,4-dihydroquinoline-3-carboxylic acid] — 0.35 log units higher, 7.55
- O=C(O)c1cn(CCO)c2ccc(Cc3ccccc3)cc2c1=O [Example 1-78] — 0.97 log units lower, 6.23
- Cc1cccc(Cc2ccc3c(c2)c(=O)c(C(=O)O)cn3CCO)c1Cl [Example 1-79, 6-(2-Chloro-3-methylbenzyl)-1-(2-hydroxyethyl)-4-oxo-1,4-dihydroquinoline-3-carboxylic acid] — within 0.2 log units, 7.11
- O=C(O)c1cn(CCO)c2ccc(Cc3ccccc3Br)cc2c1=O [Example 1-80, 6-(2-Bromobenzyl)-1-(2-hydroxyethyl)-4-oxo-1,4-dihydroquinoline-3-carboxylic acid] — 0.74 log units lower, 6.46
- O=C(O)c1cn(CCO)c2ccc(Cc3ccccc3-c3ccccc3)cc2c1=O [Example 1-86, 6-Biphenyl-2-ylmethyl-1-(2-hydroxyethyl)-4-oxo-1,4-dihydroquinoline-3-carboxylic acid] — 0.38 log units lower, 6.82
- O=C(O)c1cn(CCO)c2ccc(Cc3ccccc3Cl)cc2c1=O [Example 1-87, 6-(2-Chlorobenzyl)-1-(2-hydroxyethyl)-4-oxo-1,4-dihydroquinoline-3-carboxylic acid] — 0.35 log units lower, 6.85
- O=C(O)c1cn(CCO)c2ccc(Cc3cccc(-c4ccccc4)c3)cc2c1=O [Example 1-88] — 0.85 log units lower, 6.35
- CSc1ccc(Cl)c(Cc2ccc3c(c2)c(=O)c(C(=O)O)cn3CCO)c1 [Example 1-92, 6-(2-Chloro-5-methylsulfanylbenzyl)-1-(2-hydroxyethyl)-4-oxo-1,4-dihydroquinoline-3-carboxylic acid] — 0.65 log units lower, 6.55
- O=C(O)c1cn(CCO)c2ccc(Cc3ccccc3OC(F)(F)F)cc2c1=O [Example 1-93, 1-(2-Hydroxyethyl)-4-oxo-6-(2-trifluoromethyloxybenzyl)-1,4-dihydroquinoline-3-carboxylic acid] — 0.77 log units lower, 6.43
- O=C(O)c1cn(CCO)c2ccc(Cc3cccc(Br)c3)cc2c1=O [Example 1-96] — 0.56 log units lower, 6.64
- Cc1ccc(Cl)c(Cc2ccc3c(c2)c(=O)c(C(=O)O)cn3CCO)c1 [Example 1-97, 6-(2-Chloro-5-methylbenzyl)-1-(2-hydroxyethyl)-4-oxo-1,4-dihydroquinoline-3-carboxylic acid] — 0.31 log units lower, 6.89
- Nn1cc(C(=O)O)c(=O)c2cc(Cc3cccc(Cl)c3Cl)ccc21 [Example 2-1, 1-Amino-6-(2,3-dichlorobenzyl)-4-oxo-1,4-dihydroquinoline-3-carboxylic acid] — 0.43 log units lower, 6.77
- COC(=O)Nn1cc(C(=O)O)c(=O)c2cc(Cc3cccc(Cl)c3Cl)ccc21 [Example 2-2, 6-(2,3-Dichlorobenzyl)-1-methoxycarbonylamino-4-oxo-1,4-dihydroquinoline-3-carboxylic acid] — 0.46 log units lower, 6.74
- CC(=O)Nn1cc(C(=O)O)c(=O)c2cc(Cc3cccc(Cl)c3Cl)ccc21 [Example 2-3, 1-Acetylamino-6-(2,3-dichlorobenzyl)-4-oxo-1,4-dihydroquinoline-3-carboxylic acid] — 0.24 log units lower, 6.96
- CS(=O)(=O)Nn1cc(C(=O)O)c(=O)c2cc(Cc3cccc(Cl)c3Cl)ccc21 [Example 2-4, 6-(2,3-Dichlorobenzyl)-1-methanesulfonylamino-4-oxo-1,4-dihydroquinoline-3-carboxylic acid] — 0.54 log units higher, 7.74
- CN(n1cc(C(=O)O)c(=O)c2cc(Cc3cccc(Cl)c3Cl)ccc21)S(C)(=O)=O [Example 2-5, 6-(2,3-Dichlorobenzyl)-1-(N-methanesulfonyl-N-methylamino)-4-oxo-1,4-dihydroquinoline-3-carboxylic acid] — 0.68 log units lower, 6.52
- CN(C)n1cc(C(=O)O)c(=O)c2cc(Cc3cccc(Cl)c3Cl)ccc21 [Example 2-6, 6-(2,3-Dichlorobenzyl)-1-dimethylamino-4-oxo-1,4-dihydroquinoline-3-carboxylic acid] — within 0.2 log units, 7.04
- CNn1cc(C(=O)O)c(=O)c2cc(Cc3cccc(Cl)c3Cl)ccc21 [Example 2-7, 6-(2,3-Dichlorobenzyl)-1-methylamino-4-oxo-1,4-dihydroquinoline-3-carboxylic acid] — within 0.2 log units, 7.10
- CCNn1cc(C(=O)O)c(=O)c2cc(Cc3cccc(Cl)c3Cl)ccc21 [Example 2-8, 6-(2,3-Dichlorobenzyl)-1-ethylamino-4-oxo-1,4-dihydroquinoline-3-carboxylic acid] — within 0.2 log units, 7.07
- COc1c(Cc2cccc(Cl)c2Cl)ccc2c1c(=O)c(C(=O)O)cn2CCO [Example 3-1, 6-(2,3-Dichlorobenzyl)-1-(2-hydroxyethyl)-5-methoxy-4-oxo-1,4-dihydroquinoline-3-carboxylic acid] — 0.87 log units lower, 6.33
- Cc1c(Cl)cccc1Cc1ccc2c(c1)c(=O)c(C(=O)O)cn2CCO [Example 3-2, 6-(3-Chloro-2-methylbenzyl)-1-(2-hydroxyethyl)-4-oxo-1,4-dihydroquinoline-3-carboxylic acid] — 0.50 log units lower, 6.70
- COc1c(Cl)cccc1Cc1ccc2c(c1)c(=O)c(C(=O)O)cn2CCO [Example 3-3, 6-(3-Chloro-2-methoxybenzyl)-1-(2-hydroxyethyl)-4-oxo-1,4-dihydroquinoline-3-carboxylic acid] — 0.48 log units lower, 6.72
- COc1cc2c(cc1Cc1cccc(Cl)c1F)c(=O)c(C(=O)O)cn2CCO [Example 3-4, 6-(3-Chloro-2-fluorobenzyl)-1-(2-hydroxyethyl)-7-methoxy-4-oxo-1,4-dihydroquinoline-3-carboxylic acid] — 0.76 log units higher, 7.96
- O=C(O)c1cn(CCO)c2ccc(Cc3cccc(Cl)c3Cl)c(O)c2c1=O [Example 3-5, 6-(2,3-Dichlorobenzyl)-5-hydroxy-1-(2-hydroxyethyl)-4-oxo-1,4-dihydroquinoline-3-carboxylic acid] — 0.42 log units higher, 7.62
- O=C(O)c1cn(CCO)c2cc(O)c(Cc3cccc(Cl)c3Cl)cc2c1=O [Example 3-6, 6-(2,3-Dichlorobenzyl)-7-hydroxy-1-(2-hydroxyethyl)-4-oxo-1,4-dihydroquinoline-3-carboxylic acid] — 0.76 log units higher, 7.96
- CN(C)c1ccccc1Cc1ccc2c(c1)c(=O)c(C(=O)O)cn2CCO [Example 3-8, 6-(2-Dimethylaminobenzyl)-1-(2-hydroxyethyl)-4-oxo-1,4-dihydroquinoline-3-carboxylic acid] — 0.73 log units lower, 6.47
- O=C(O)c1cn(-c2ccccc2)c2ccc(Cc3cccc(Cl)c3Cl)cc2c1=O [Example 3-9, 6-(2,3-Dichlorobenzyl)-4-oxo-1-phenyl-1,4-dihydroquinoline-3-carboxylic acid] — within 0.2 log units, 7.08
- O=C(O)c1cn(C(CO)CO)c2ccc(Cc3cccc(Cl)c3Cl)cc2c1=O [Example 3-10, 6-(2,3-Dichlorobenzyl)-1-[2-hydroxy-1-(hydroxymethyl)ethyl]-4-oxo-1,4-dihydroquinoline-3-carboxylic acid] — 0.54 log units higher, 7.74
- O=C(O)c1cn(C2CCC2)c2ccc(Cc3cccc(Cl)c3Cl)cc2c1=O [Example 3-12, 1-Cyclobutyl-6-(2,3-dichlorobenzyl)-4-oxo-1,4-dihydroquinoline-3-carboxylic acid] — 0.60 log units higher, 7.80
